This test deals with intraocular pressure in rabbits. The experiment in a line: Effects of topically administered renin inhibiting compounds on intraocular pressure of rabbits. It is filed as in vivo, Male albino, New Zealand rabbits. The following applies: topical 0.1 ml, 0.1% (w/v). Here is the method: The antiglaucoma activity of the compounds was tested by measuring the effect on intraocular pressure in rabbits as described by Tinjum, A.M., Acta Ophthalmologica, 50, 677 (1972). Male albino, New Zealand rabbits were placed in restraining devices and the intraocular pressure was measured with an applamatic tonometer. Exactly 0.1 ml of an isotonic saline solution containing a test compound was instilled into the conjuctival sac and the intraocular pressure was measured at 5, 15, 30, 60, 90, 120 and 180 minutes afterwards.

Where [1] appears, read: 15 minutes after administration.
Setting [2] is: 30 minutes after administration.
Where [3] appears, read: 60 minutes after administration.
Where [4] appears, read: 90 minutes after administration.
The mark [5] stands for this setting: 120 minutes after administration.
[6] abbreviates: 180 minutes after administration.

Counter-ions that a name gives are not always drawn.

For the molecule “Boc-Phe-His amide of (2S,4S,1'R,2'S)-2-(2-amino-7-cyclohexyl-4,5-dihydroxyheptan-2-oic acid sodium salt [Compound XI]”, the “Mean Intraocular Pressure in mmHg” value by setting is: (0 minutes after administration) 18.5 mmHg; (5 minutes after administration) 13.4 mmHg; under setting [1], 11.4 mmHg; under setting [2], 10.6 mmHg; under setting [3], 14.6 mmHg; under setting [4], 16.1 mmHg. For the same molecule, the “Mean Intraocular Pressure in mmHg” value runs as follows: under setting [5], 15.7 mmHg; under setting [6], 19.0 mmHg.
Consider `C=C(C[C@H](O)[C@H](CC1CCCCC1)NC(=O)C(Cc1cnc[nH]1)NC(=O)C(Cc1ccccc1)NC(=O)OC(C)(C)C)C(=O)NCCC(C)C` (stereo partly drawn) [Compound IX, Boc-Phe-His amide of (4S,5S) N-(3-methylbutyl)-5-amino-6-cyclohexyl-1-hexen-4-ol-2-carboxamide], for which the “Mean Intraocular Pressure in mmHg” value is, setting by setting: (0 minutes after administration) 22.2 mmHg; (5 minutes after administration) 22.5 mmHg; under setting [1], 18.1 mmHg; under setting [2], 15.8 mmHg; under setting [3], 19.5 mmHg; under setting [4], 22.4 mmHg. Moreover, the “Mean Intraocular Pressure in mmHg” value was 24.3 mmHg under setting [5] and 24.2 mmHg under setting [6].
On to `CC(C)C[C@H](O)[C@H](O)[C@H](CC1CCCCC1)NC(=O)[C@H](Cc1cnc[nH]1)NC(=O)[C@H](Cc1ccccc1)NC(=O)N1CCC(O)CC1` [Compound III, (1-(4 hydroxypiperidinyl)carbonyl)-Phe-His amide of 2(S)-amino 1-cyclohexyl-3(R),4(S) dihydroxy 6-methylheptane], for which the “Mean Intraocular Pressure in mmHg” value (0 minutes after administration) is listed as 19.1 mmHg; the “Mean Intraocular Pressure in mmHg” value (5 minutes after administration) is 15.5 mmHg; the “Mean Intraocular Pressure in mmHg” value under setting [1] worked out at 12.4 mmHg; the “Mean Intraocular Pressure in mmHg” value under setting [2] worked out at 13.9 mmHg; the “Mean Intraocular Pressure in mmHg” value under setting [3] came out at 14.9 mmHg; the “Mean Intraocular Pressure in mmHg” value under setting [4] was 16.3 mmHg. The “Mean Intraocular Pressure in mmHg” value is on record as 17.8 mmHg under setting [5] and 18.2 mmHg under setting [6].
In the case of `CC(C)C[C@H](O)[C@H](O)[C@H](CC1CCCCC1)NC(=O)[C@H](Cc1cnc[nH]1)NC(=O)[C@H](Cc1ccccc1)NC(=O)N1CCOCC1` [Compound I, (4-morpholinyl)carbonyl Phe-His amide of 2(S) amino-1 cyclohexyl-(3R),4(S)dihydroxy-6-methylheptane], the “Mean Intraocular Pressure in mmHg” value came to 19.0 mmHg (0 minutes after administration); 18.2 mmHg (5 minutes after administration); 16.5 mmHg under setting [1]; 12.2 mmHg under setting [2]; 13.9 mmHg under setting [3]; 15.1 mmHg under setting [4]. In addition, the “Mean Intraocular Pressure in mmHg” value reads like this: under setting [5], 16.8 mmHg; under setting [6], 20.4 mmHg.
In the case of `C=C(C[C@H](O)[C@H](O)[C@H](CC1CCCCC1)NC(=O)C(Cc1cnc[nH]1)NC(=O)C(Cc1ccccc1)NC(=O)OC(C)(C)C)C(=O)[O-].[Na+]` (stereo partly drawn) [Compound XII, Boc-Phe-His amide of (4S,5R,6S)-6-amino-7-cyclohexyl-4,5-dihydroxy-1-hepten-2-oic acid sodium salt], the “Mean Intraocular Pressure in mmHg” value reads like this: (0 minutes after administration) 19.3 mmHg; (5 minutes after administration) 12.5 mmHg; under setting [1], 10.3 mmHg; under setting [2], 12.4 mmHg; under setting [3], 12.3 mmHg; under setting [4], 12.3 mmHg. For the same molecule, the “Mean Intraocular Pressure in mmHg” value by setting is: under setting [5], 14.6 mmHg; under setting [6], 16.3 mmHg.
In the case of `COc1ccc(C[C@H](NC(=O)CC(C)(C)N)C(=O)N[C@@H](Cc2cnc[nH]2)C(=O)N[C@@H](CC2CCCCC2)[C@@H](O)[C@@H](O)CC(C)C)cc1` [Compound II, H-((beta,betadimethyl)-beta-Ala)-(4 OCH3)Phe-His amide of 2(S)-amino-1-cyclohexyl-3(R),4(S) dihydroxy-6-methylheptane di-acetic acid salt], the “Mean Intraocular Pressure in mmHg” value worked out at 18.4 mmHg (0 minutes after administration); 15.0 mmHg (5 minutes after administration); 13.5 mmHg under setting [1]; 13.2 mmHg under setting [2]; 13.4 mmHg under setting [3]; 17.1 mmHg under setting [4]. For the same molecule, the “Mean Intraocular Pressure in mmHg” value by setting is: under setting [5], 19.0 mmHg; under setting [6], 17.2 mmHg.
`CC[C@@H]1C(=O)OC[C@@H]1Cc1cncn1C` [Pilocarpine, reference compound]: the “Mean Intraocular Pressure in mmHg” value reads like this: (0 minutes after administration) 17.6 mmHg; (5 minutes after administration) 14.4 mmHg; under setting [1], 13.0 mmHg; under setting [2], 11.9 mmHg; under setting [3], 13.0 mmHg; under setting [4], 12.6 mmHg. Also, the “Mean Intraocular Pressure in mmHg” value is, setting by setting: under setting [5], 16.4 mmHg; under setting [6], 17.7 mmHg.
With “Boc-Phe-Histidinyl-4-amino-3-hydroxy 5-cyclohexylpentanoic acid amide of 2 methylbutylamine [Compound VII]”, the “Mean Intraocular Pressure in mmHg” value reads like this: (0 minutes after administration) 19.7 mmHg; (5 minutes after administration) 17.2 mmHg; under setting [1], 13.8 mmHg; under setting [2], 14.3 mmHg; under setting [3], 14.8 mmHg; under setting [4], 19.3 mmHg. The “Mean Intraocular Pressure in mmHg” value under setting [5] is reported as 21.1 mmHg and the “Mean Intraocular Pressure in mmHg” value under setting [6] turned out to be 22.7 mmHg.
Turning to `CCN1C[C@@H]([C@H](O)[C@H](CC2CCCCC2)NC(=O)[C@H](Cc2cnc[nH]2)NC(=O)[C@@H](CC(=O)N(C)CCOCOCCOC)Cc2ccccc2)OC1=O` [Compound IV, (2R)-2-benzyl-3-((2-methoxyethoxy-methoxyethyl)methylaminocarbonyl)propionyl-His amide of (2'S,1'R,5S)-3-ethyl-5-(1'-hydroxy 2'-amino-3'-cyclohexylpropyl) -oxazolidin-2-one], the “Mean Intraocular Pressure in mmHg” value (0 minutes after administration) was 18.2 mmHg; the “Mean Intraocular Pressure in mmHg” value (5 minutes after administration) is 14.5 mmHg; the “Mean Intraocular Pressure in mmHg” value under setting [1] was 13.0 mmHg; the “Mean Intraocular Pressure in mmHg” value under setting [2] is 13.3 mmHg; the “Mean Intraocular Pressure in mmHg” value under setting [3] is on record as 14.2 mmHg; the “Mean Intraocular Pressure in mmHg” value under setting [4] amounted to 16.3 mmHg. Also, the “Mean Intraocular Pressure in mmHg” value under setting [5] was 14.9 mmHg and the “Mean Intraocular Pressure in mmHg” value under setting [6] worked out at 16.2 mmHg.
Take `CC(C)(C)OC(=O)NC(Cc1ccccc1)C(=O)NC(Cc1cnc[nH]1)C(=O)N[C@@H](CC1CCCCC1)[C@@H](O)[C@@H](O)CN` (stereo partly drawn) [Compound X, Boc-Phe-His amide (4-amino) of (2S,3R,4S) 1,4-diamino-2,3-dihydroxy-5-cyclohexylpentane]: the “Mean Intraocular Pressure in mmHg” value is, setting by setting: (0 minutes after administration) 20.8 mmHg; (5 minutes after administration) 20.6 mmHg; under setting [1], 20.6 mmHg; under setting [2], 15.9 mmHg; under setting [3], 15.1 mmHg; under setting [4], 19.1 mmHg. The “Mean Intraocular Pressure in mmHg” value is, setting by setting: under setting [5], 20.6 mmHg; under setting [6], 21.7 mmHg.
Take `CC(C)CC(=O)NCC[C@H](O)[C@H](CC1CCCCC1)NC(=O)C(Cc1cnc[nH]1)NC(=O)C(Cc1ccccc1)NC(=O)OC(C)(C)C` (some centres unmarked) [Compound VIII]: the “Mean Intraocular Pressure in mmHg” value is, setting by setting: (0 minutes after administration) 19.4 mmHg; (5 minutes after administration) 17.0 mmHg; under setting [1], 16.5 mmHg; under setting [2], 15.4 mmHg; under setting [3], 18.4 mmHg; under setting [4], 21.2 mmHg. The “Mean Intraocular Pressure in mmHg” value is listed as 20.5 mmHg under setting [5] and 21.9 mmHg under setting [6].
For `CC(C)CC(NC(=O)C(Cc1ccccc1)NC(=O)CCCC(=O)O)C(=O)N[C@@H](CC1CCCCC1)[C@@H](O)[C@@H](O)CC(C)C` (stereo partly drawn) [Compound XIII, 4-Carboxybutyroyl-Phe-Leu amide of 2(S)-amino 1-cyclohexyl 3(R),4(S)-dihydroxy 6-methylheptane], the “Mean Intraocular Pressure in mmHg” value is reported as 19.5 mmHg (0 minutes after administration); 17.6 mmHg (5 minutes after administration); 17.2 mmHg under setting [1]; 15.6 mmHg under setting [2]; 16.4 mmHg under setting [3]; 16.3 mmHg under setting [4]. Further, the “Mean Intraocular Pressure in mmHg” value reads like this: under setting [5], 17.5 mmHg; under setting [6], 15.3 mmHg.
For `CC(C)(C)OC(=O)NC(Cc1ccccc1)C(=O)NC(Cc1cnc[nH]1)C(=O)NC(CC1CCCCC1)C(O)CSC1CCCCC1` (stereo not drawn) [Compound VI, Boc-Phe-His amide of 3-amino-4 cyclohexyl 1 cyclohexylmercapto-2-hydroxybutane], the “Mean Intraocular Pressure in mmHg” value by setting is: (0 minutes after administration) 21.0 mmHg; (5 minutes after administration) 16.5 mmHg; under setting [1], 16.5 mmHg; under setting [2], 15.2 mmHg; under setting [3], 14.7 mmHg; under setting [4], 21.7 mmHg. In addition, the “Mean Intraocular Pressure in mmHg” value worked out at 22.4 mmHg under setting [5] and 19.9 mmHg under setting [6].

For the origin of these results see patent publication US5059589A, “Glaucoma treatment” (Abbott Laboratories, priority 1990, dated 1991).
